Assay results reported in patent EP0154476A2, “Steroid compound” (STERWIN AG., priority 1984, dated 1985).

Key:
[1] = cytochemical bioassay in unfixed tissue sections of dioestrous rat ovary (formazan dye absorbance); assay type: biochemical; settings: versus trilostane, weight for weight basis, standard curves 0.15 to 2.5 µM (nM), 95% confidence 1.4-2.1
Protocol: In a first study, a cytochemical bioassay was employed to determine the relative potency of the 17- keto trilostane metabolite versus trilostane, in three experiments. From the results obtained, standard curves covering the range from 0.15 to 2.5nM were prepared for the metabolite and the parent compound. Potency estimates were calculated by computer analysis of the relative slopes and errors around each dose point.
The cytochemical bioassay is based upon the reaction, within serial unfixed tissue sections of the dioestrous rat ovary, between the enzyme, […] -A^5-3-oxosteroid isomerase (38 HSD) contained therein, and added substrate, cofactors and a colourless tetrazolium salt. The reaction leads to the deposition of an intensely coloured blue insoluble formazan dye in the sections, and the amount of dye produced within a section over a given period (absorbance) is measured by means of a scanning integrating densitometer. If an inhibitor of 3a HSD, such as trilostane or 17-keto trilostane metabolite is added to the system, the amount of blue dye formed will be reduced.
The bioassay curves obtained are as shown in Figure 1 of the accompanying drawings, results being expressed as the mean +SD(n=4).

[2] = tested on: plasma cortisol; experiment: plasma cortisol by radioimmunoassay after oral trilostane in volunteers; assay type: in vivo, healthy male volunteers; settings: trilostane 2 x 60 mg capsules orally, fasted, plasma up to 8 hours; during sustained plasma peaks of trilostane and 17-keto metabolite

Row | Compound | relative in vitro potency compared with the parent compound [1] | relative in vitro potency compared with the parent compound ([1]; listed as metabolite) [times] | cortisol secretion [2]
1 | C[C@]12CC[C@H]3[C@@H](CC[C@@]45O[C@@H]4C(=O)[C@H](C#N)C[C@]35C)[C@@H]1CCC2=O [17-keto metabolite, 2α-cyano-4α,5α-epoxyandrostan-3,17-dione] | about 1.7 times | 1.71 | –
2 | C[C@]12CC[C@H]3[C@@H](CC[C@@]45O[C@@H]4C(O)=C(C#N)C[C@]35C)[C@@H]1CC[C@@H]2O [trilostane, 2a-cyano-4a,5a-epoxyandrostan-17a-ol-3-one] | – | – | suppressed
